{
  "source": "paper PMC7140522",
  "about": "“The Pyrazolo[3,4-d]pyrimidine Derivative, SCO-201, Reverses Multidrug Resistance Mediated by ABCG2/BCRP” (Cells, 2020)",
  "key": {"ABCG2": {"target": "T1, ABCG2 (Homo sapiens, UniProt Q9UNQ0)", "T1 construct": "expressed in transfected cells; host or cells: MDCK-II (canine kidney)", "T1 sequence (Q9UNQ0 whole entry)": "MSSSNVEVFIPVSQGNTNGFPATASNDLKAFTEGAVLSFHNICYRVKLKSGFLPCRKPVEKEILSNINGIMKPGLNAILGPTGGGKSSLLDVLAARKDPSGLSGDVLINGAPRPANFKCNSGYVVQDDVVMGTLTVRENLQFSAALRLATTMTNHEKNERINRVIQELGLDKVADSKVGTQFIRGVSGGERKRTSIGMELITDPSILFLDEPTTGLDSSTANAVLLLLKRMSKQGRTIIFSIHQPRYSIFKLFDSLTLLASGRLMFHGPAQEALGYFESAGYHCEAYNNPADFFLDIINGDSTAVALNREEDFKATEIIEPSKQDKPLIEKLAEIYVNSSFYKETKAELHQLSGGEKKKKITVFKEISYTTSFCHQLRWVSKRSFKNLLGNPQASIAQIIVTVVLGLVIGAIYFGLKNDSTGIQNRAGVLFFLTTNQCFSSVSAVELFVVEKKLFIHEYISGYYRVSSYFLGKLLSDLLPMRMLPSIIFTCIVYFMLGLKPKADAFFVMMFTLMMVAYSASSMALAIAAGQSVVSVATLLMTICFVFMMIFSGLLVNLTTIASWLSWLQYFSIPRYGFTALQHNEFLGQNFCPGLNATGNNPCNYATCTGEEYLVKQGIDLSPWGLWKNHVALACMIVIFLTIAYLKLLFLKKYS", "assay": "Pheophorbide A accumulation assay in MDCK cells", "format": "cell-based", "details": "flow cytometry", "source_text": "67 literature as a standard inhibitor for potency assessment of new compounds, was used as a\n69 intra cellular fluorescence values in the steady state measured by flow cytometry for each\n73 experiment is depicted."}, "CYP2C9": {"target": "CYP2C9 (Homo sapiens, UniProt P11712)", "sequence (P11712 whole entry)": "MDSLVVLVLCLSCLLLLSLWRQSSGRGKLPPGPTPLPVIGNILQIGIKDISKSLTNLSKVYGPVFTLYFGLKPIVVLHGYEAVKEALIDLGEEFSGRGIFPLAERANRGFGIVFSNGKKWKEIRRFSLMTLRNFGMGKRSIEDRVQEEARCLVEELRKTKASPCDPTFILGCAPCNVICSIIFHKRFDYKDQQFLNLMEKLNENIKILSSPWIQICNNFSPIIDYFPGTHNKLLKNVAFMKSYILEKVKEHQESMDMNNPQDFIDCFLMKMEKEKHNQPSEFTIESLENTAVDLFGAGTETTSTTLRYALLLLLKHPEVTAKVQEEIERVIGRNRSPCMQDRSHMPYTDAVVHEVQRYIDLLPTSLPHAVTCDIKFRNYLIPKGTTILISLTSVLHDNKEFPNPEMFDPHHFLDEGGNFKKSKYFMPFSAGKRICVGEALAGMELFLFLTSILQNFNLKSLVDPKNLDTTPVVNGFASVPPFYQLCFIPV", "assay": "CYP inhibition, CYP2C9", "format": "in vitro ADME", "details": "Human liver microsomes, diclofenac substrate"}, "CYP3A": {"system": "CYP3A", "assay": "CYP induction in human hepatocytes, CYP3A enzyme activity", "format": "in vitro ADME", "description": "The following procedure was carried out to test whether SCO-201 induces CYP1A, CYP2B6, and CYP3A activities in human hepatocytes. The procedure was designed in accordance with the FDA Guidance for Industry on Drug Interaction Studies (2006). Male and female human hepatocytes were thawed and plated into collagen-coated 96-well plates in serum-containing medium (plating medium) at a density of 0.7 × 10^6 viable cells/mL. The hepatocytes were cultured in a humidified incubator at 37 °C and 5% CO2. At 4 h post plating, human hepatocytes were washed once with fresh plating medium, followed by overnight incubation. At 24 h after plating, the plating medium was removed, and the hepatocytes were overlaid with extracellular matrix (ECM) (Sigma) or Matrigel (BD) in the serum-free medium (incubation medium), and then incubated for another 24 h. Incubation medium with 0.1% DMSO was used as the negative control. After the 2-day recovery period, the hepatocytes were treated with SCO-201 or a known inducer (Table S3) in the incubation medium on day 3 and day 4. The known inducer was tested as the positive control. On day 5, the medium was removed, and the cells were incubated with the respective CYP substrate in Krebs–Henseleit buffer (pH 7.4) containing 3 mM salicylamide for 30 min. The reaction was terminated by transferring the incubation mixture to an equal volume of acetonitrile/methanol mixture (1/1, v/v). Samples were mixed and centrifuged. Supernatants are used for HPLC-MS/MS analysis of the corresponding metabolite. Peak areas corresponding to the metabolite were recorded. The assay was rendered valid if enzyme activity with the positive control was at least twofold greater than negative control.\nCells 2020, 9, x FOR PEER REVIEW 9 of 9\nSubstrate (conc.) Metabolite Assay\nEthoxyresorufin (2 µM) Resorufin CYP1A\nBupropion (200 µM) Hydrozyl-bupropion CYP2B6\nMidazolam (10 µM) 1-hydroxymidazolam CYP3A\n139 Table S3: In vitro DMPK analysis: CYP induction.\n140 were applied as inducers of the investigated CYPs.\n144 References for supplementary materials\n146 1. […]"}, "CYP1A": {"system": "CYP1A", "assay": "CYP induction in human hepatocytes, CYP1A enzyme activity", "format": "in vitro ADME"}, "CYP2B6": {"system": "CYP2B6", "assay": "CYP induction in human hepatocytes, CYP2B6 enzyme activity", "format": "in vitro ADME"}, "ABCG2 (BCRP)": {"target": "T2, ABCG2 (BCRP) (Homo sapiens, UniProt Q9UNQ0)", "T2 construct": "expressed in transfected cells; host or cells: MDCK-II (canine kidney)", "T2 sequence (Q9UNQ0 whole entry)": "as the sequence (Q9UNQ0 whole entry) above", "assay": "Hoechst 33342 accumulation assay in MDCK-II-BCRP cells", "format": "cell-based", "details": "MDCK cells overexpressing BCRP, steady-state fluorescence", "procedure": "Dose–response curves were fitted by nonlinear regression using the four-parameter or three-parameter logistic equation, whichever was statistically preferred (GraphPad Prism, version 6.0, San Diego, CA, USA).\n46 72 hours with the indicated concentrations of drugs.\n49 example is shown. Error bars indicate standard deviations.\n57 was used as a comparator.\n58 tested and fluorescence values in the steady state measured for each concentration. The IC50-values\nA representative experiment is depicted."}},
  "data": [
    {"smiles": "Nc1nc(-c2ccccc2)nc2[nH]nc(Nc3ccc(C(F)(F)F)cc3)c12", "note": "[SCO-201]", "values": [
      {"measurement": "IC50", "setting": "ABCG2", "value": 145, "unit": "nM"},
      {"measurement": "IC50", "setting": "CYP2C9", "value": "> 100000", "unit": "nM"},
      {"measurement": "Mean Fold Enzyme Activity Induction at 1 × 10^−4 M", "setting": "CYP3A; Donor 1", "value": 1.3},
      {"measurement": "Mean Fold Enzyme Activity Induction at 1 × 10^−4 M", "setting": "CYP3A; Donor 2", "value": 2.0},
      {"measurement": "Mean Fold Enzyme Activity Induction at 1 × 10^−4 M", "setting": "CYP3A; Donor 3", "value": 0.4},
      {"measurement": "Mean Fold Enzyme Activity Induction at 1 × 10^−4 M", "setting": "CYP1A; Donor 1", "value": 1},
      {"measurement": "Mean Fold Enzyme Activity Induction at 1 × 10^−4 M", "setting": "CYP1A; Donor 2", "value": 0.7},
      {"measurement": "Mean Fold Enzyme Activity Induction at 1 × 10^−4 M", "setting": "CYP1A; Donor 3", "value": 0.7},
      {"measurement": "Mean Fold Enzyme Activity Induction at 1 × 10^−4 M", "setting": "CYP2B6; Donor 1", "value": 0.8},
      {"measurement": "Mean Fold Enzyme Activity Induction at 1 × 10^−4 M", "setting": "CYP2B6; Donor 2", "value": 0.9},
      {"measurement": "Mean Fold Enzyme Activity Induction at 1 × 10^−4 M", "setting": "CYP2B6; Donor 3", "value": 0.6},
      {"measurement": "IC50", "setting": "ABCG2 (BCRP)", "value": 175, "unit": "nM"}
    ]}
  ]
}
